Source: ChEMBL document CHEMBL2034899, “5-Arylbenzothiadiazine Type Compounds as Positive Allosteric Modulators of AMPA/Kainate Receptors” (ACS Med Chem Lett, 2012)
Calls of active or inactive are those of the source. No cut-off for these calls is given here.

Key:
Cerebral cortex neuron [1] = test: Positive allosteric modulation at AMPA receptor in primary cortical neurons assessed as potentiation of kainate-induced current at 10 uM by patch clamp analysis; assay type: cell-based
Cerebral cortex neuron [2] = test: Positive allosteric modulation at AMPA receptor in primary cortical neurons assessed as potentiation of kainate-induced current at 100 uM by patch clamp analysis
[3] = Drug uptake in mouse nucleus accumbens assessed as 7-chloro-5-(3-furyl)-3- methyl-4H-1,2,4-benzothiadiazine 1,1-dioxide level at 20 mg/kg, ip measured after 140 mins; assay type: ADME, organism-based; set-up: dose 20 mg/kg, route intraperitoneal; conditions: in vivo
[4] = Drug uptake in mouse nucleus accumbens at 20 mg/kg, ip measured after 40 mins; assay type: ADME, organism-based; set-up: dose 20 mg/kg, route intraperitoneal; conditions: read-out: Drug uptake
[5] = Drug uptake in mouse nucleus accumbens assessed as 7-chloro-5-(3-furyl)-3- methyl-4H-1,2,4-benzothiadiazine 1,1-dioxide level at 20 mg/kg, ip measured after 2 hrs; assay type: ADME, organism-based; set-up: dose 20 mg/kg, route intraperitoneal; conditions: in vivo
[6] = Positive allosteric modulation at AMPA receptor in primary cortical neurons assessed as potentiation of kainate-induced current by patch clamp analysis; assay type: cell-based; conditions: Cerebral cortex neuron
[7] = Drug uptake in mouse nucleus accumbens at 20 mg/kg, ip measured after 2 hrs; assay type: ADME, organism-based; set-up: dose 20 mg/kg, route intraperitoneal; conditions: in vivo
[8] = Drug uptake in mouse nucleus accumbens assessed as 7-chloro-5-(3-furyl)-3- methyl-4H-1,2,4-benzothiadiazine 1,1-dioxide level at 20 mg/kg, ip measured after 1 hr; assay type: ADME, organism-based; set-up: dose 20 mg/kg, route intraperitoneal; conditions: in vivo, read-out: Drug uptake

| Structure (SMILES) | Activity (Cerebral cortex neuron [1]) | Activity (Cerebral cortex neuron [2]) | further results |
| --- | --- | --- | --- |
| CCC1Nc2c(-c3ccco3)cc(Cl)cc2S(=O)(=O)N1 (stereo not given) | < 10% | inactive |  |
| Nc1cccc(-c2cc(Cl)cc3c2NCNS3(=O)=O)c1 | < 10% | inactive |  |
| CC1Nc2c(-c3ccc(C(=O)O)cc3)cc(Cl)cc2S(=O)(=O)N1 (stereo not given) | < 10% | inactive |  |
| CCC1Nc2c(-c3ccc(C(=O)O)cc3)cc(Cl)cc2S(=O)(=O)N1 (stereo not given) | < 10% | inactive |  |
| O=S1(=O)NCNc2c(-c3ccco3)cc(Cl)cc21 | 20% | inactive |  |
| CC1Nc2c(-c3cccs3)cc(Cl)cc2S(=O)(=O)N1 (stereo not given) | < 10% | inactive |  |
| CC1Nc2c(-c3ccoc3)cc(Cl)cc2S(=O)(=O)N1 (stereo not given) | 358% | inactive | Drug uptake [3]: Not Active; concentration at 40 min [4]: 37 µM; Drug uptake [5]: Active; EC50 [6]: 1300 nM; Drug uptake [7]: Not Active; concentration [8]: 8 µM |
| CC1Nc2c(-c3ccco3)cc(Cl)cc2S(=O)(=O)N1 (stereo not given) | 80% | inactive |  |
| O=C(O)c1ccc(-c2cc(Cl)cc3c2NCNS3(=O)=O)cc1 | < 10% | inactive |  |
| CC1Nc2c(-c3ccsc3)cc(Cl)cc2S(=O)(=O)N1 (stereo not given) | 214% | inactive |  |
| CC1CN2c3c1cc(Cl)cc3S(=O)(=O)NC2C (racemic) | 53% | inactive |  |
| CC1Nc2c(-c3cccc(N)c3)cc(Cl)cc2S(=O)(=O)N1 (stereo not given) | < 10% | inactive |  |
